The values that follow come from paper PMC13266636 (ACS Medicinal Chemistry Letters, 2026).

Structures are written as SMILES.

Common to all, as to assay: stopped-flow CO2 hydration assay
Assay type in all cases: biochemical
Conditions in all cases: read-out: Topiramate; mean of […] assays, errors […]

In one assay the target is T1, hCA IX (Homo sapiens, UniProt Q16790).
T1 construct: gene CA9; tumor-associated isoform

For another assay, the target named is T2, hCA XIII (Homo sapiens, UniProt Q8N1Q1).
T2 construct: gene CA13; cytosolic isoform
T2 sequence (Q8N1Q1 whole entry, canonical isoform): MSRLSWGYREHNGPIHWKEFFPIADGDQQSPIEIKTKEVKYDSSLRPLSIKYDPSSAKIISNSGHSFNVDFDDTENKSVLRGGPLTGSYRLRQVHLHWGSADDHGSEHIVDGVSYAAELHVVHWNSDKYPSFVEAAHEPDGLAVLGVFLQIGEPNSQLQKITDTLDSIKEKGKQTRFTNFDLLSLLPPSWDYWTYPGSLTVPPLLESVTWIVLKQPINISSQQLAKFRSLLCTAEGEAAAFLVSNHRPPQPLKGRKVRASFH

The target of a further assay is T3, hCA VI (Homo sapiens, UniProt P23280).
T3 construct: gene CA6
T3 sequence (P23280 18-308): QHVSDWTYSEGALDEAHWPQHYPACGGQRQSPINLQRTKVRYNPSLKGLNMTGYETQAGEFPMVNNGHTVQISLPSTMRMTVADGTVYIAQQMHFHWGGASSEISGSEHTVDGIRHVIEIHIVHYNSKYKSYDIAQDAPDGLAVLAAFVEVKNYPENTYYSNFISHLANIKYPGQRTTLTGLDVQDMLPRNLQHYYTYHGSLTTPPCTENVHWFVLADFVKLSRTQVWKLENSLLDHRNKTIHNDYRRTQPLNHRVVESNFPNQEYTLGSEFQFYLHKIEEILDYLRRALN

A further assay addresses T4, hCA XIV (Homo sapiens, UniProt Q9ULX7).
T4 construct: gene CA14

T4 sequence (Q9ULX7 16-290 limits assumed): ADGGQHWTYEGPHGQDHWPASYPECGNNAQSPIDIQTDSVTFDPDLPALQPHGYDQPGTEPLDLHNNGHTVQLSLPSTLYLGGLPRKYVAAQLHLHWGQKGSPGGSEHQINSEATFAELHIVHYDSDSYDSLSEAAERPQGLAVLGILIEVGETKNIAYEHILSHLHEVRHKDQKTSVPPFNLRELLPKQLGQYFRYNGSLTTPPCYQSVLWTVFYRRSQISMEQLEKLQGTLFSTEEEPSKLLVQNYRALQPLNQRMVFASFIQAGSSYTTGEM

With `CC1(C)O[C@@H]2[C@@H](CO[C@@]3(COS(N)(=O)=O)OC(C)(C)O[C@@H]23)O1` [Topiramate], the Ki at hCA IX was […]; at hCA XIII, 47 nM; on hCA VI it was 45 nM; on hCA XIV, 1460 nM.
